One data set relates to S. aureus bacteria. The data set is described as follows: zone of inhibition of extract solutions on agar culture plate. The class given is cell-based. How it is done:
A nonwoven rayon gauze material (SofWick, a commercially available rayon gauze material manufactured by Johnson & Johnson) was graft polymerized with diallyldimethylammonium chloride (DADAMC) to 10 weight % poly(DADMAC), to form the cationic cellulose surface. Each gauze substrate treated in this manner measured approximately 40 square inches. One gram samples of cationic cellulose prepared in this manner (sample K), and untreated SofWick (sample L) were each soaked overnight in 25 ml of 0.5% SP solution. Samples were removed and squeezed to remove excess liquid. Samples were then washed in 25 mL of distilled water for one hour with agitation, and then squeezed to remove excess liquid. Each sample was subjected to four sequential extractions using 25 mL of distilled water for one hour at room temperature with agitation. Samples were squeezed to remove excess solution between extraction cycles. A fifth extraction was performed using pH 7.4 phosphate buffered saline (PBS). Saline is expected to remove a greater amount of pyrithione due to ion exchange. The extract solutions were tested for antimicrobial activity by placing single 20 microliter drops of the solutions at marked locations on an agar culture plate spread with ~3×10^3 CFU (continuous lawn) of S. aureus bacteria. Plates were incubated overnight at 37° C., and the diameter of the “zone of inhibition”, or “ZOI” was measured. […]

For data set [1] the following is noted: cited from earlier work.

A value given as a limit tells only on which side of the number the result lay.

Turning to `[Na+].[O-][n+]1ccccc1[S-]` [SP, sodium pyrithione], the results for the ZOI with S. aureus bacteria (0.01% SP control solution) and in the data set with S. aureus bacteria (0.1% SP control solution) were 12 mm and 26 mm, respectively. Further, the “water solubility (aqueous solutions possible)” value in data set [1] (aqueous) was more than 50 wt %.
On to Zinc pyrithione, for which, in data set [1] (water), the “max. solubility in water” value is on record as 0.0015%.
